Like-named read-outs stand apart in the source and are kept apart here.
How the values were obtained:
[1] = for stability: compound alone, 5 mg/ml, 37° C., SGF pH 1.0, PBS pH 4.5, SIF pH 7.3, 0.5-6 hours
respiratory infection = assay: Prevention of respiratory infections of weaning piglets; type: in vivo
From the text: The sick rate was about 10% and the death rate was about 5%. […] Control feed comprised 500 grams of Tilmicosin per 1000 kg. The nursery feeds were given to 763 of weaning piglets and 750 of controls from day 15 of the weaning period.

[2] = system: human inflammatory tissues or cancer tissues; assay: Antibody binding to human diseased tissues (tissue array slides); conditions: respiratory, cardiovascular, urinary and digestive system
From the text: (§1) Further, the Regn10987 antibody from COVID-19 infected patient and fetal tissues or multiple diseased tissues of tissue array slides (purchased from US Biomax) were used to evaluate the pathogenicity of the antibody specific to the SARS-CoV-2 S1 protein. […] In addition, the Regn10987 bound broadly to the human inflammatory tissues or cancer tissues of respiratory, cardiovesvular, urinary and digestive system (FIGS. 17A and 17B). The human inflammatory diseases tested include pneumonia, bronchitis, bronchiectasis, valvular disease, rheumatoid valvular disease, myocarditis, esophagitis, gastritis, collitis, appendicitis, pancreatitis, and hepatitis. The cancer tissues tested include small cell lung carcinoma, kidney clear cell carcinoma, and myxoma.

[3] = system: human lung epithelium cell line A549; assay: Antibody binding to healthy or damaged A549 cells; type: cell-based
human fetal tissues = assay: Antibody binding to human fetal tissues (tissue array slides); conditions: lung, heart, kidney, brain, pancreas, liver, thymus and testicle
From the text: as §1

[4] = system: fetus and newborn mouse pups of timed-pregnant mice
[5] = system: A/PR/8/34(H1N1) influenza virus; set-up: species or system C57BL/6J mice; conditions: mouse, in vivo
[6] = system: A/H3N2/Hong Kong/1/68 influenza virus; set-up: species or system C57BL/6J mice; conditions: mouse, in vivo

For `CC(=O)N[C@H]1[C@H]([C@H](O)[C@H](O)CO)OC(O)(C(=O)O)C[C@@H]1O` (some centres unmarked) [NANA, N-acetylneuraminic acid], the stability [1] was “stable at all the pH conditions”.
With `CC[C@H]1OC(=O)C[C@@H](O)[C@H](C)[C@@H](O[C@@H]2O[C@H](C)[C@@H](O)[C@H](N(C)C)[C@H]2O)[C@@H](CCN2C[C@H](C)C[C@H](C)C2)C[C@@H](C)C(=O)/C=C/C(C)=C/[C@@H]1CO[C@@H]1O[C@H](C)[C@@H](O)[C@@H](OC)[C@H]1OC` [Tilmicosin] the “Odds Ratio” value (respiratory infection; death) was 5.76 and the Death (respiratory infection; number of piglets, nursery feed for 4 days from day 15 of weaning) was 38.
With “MAb-Regn10987: naturally occurred human monoclonal antibody specific to the COVID-19 (SARS-CoV-2) S1 protein” the “binding to human inflammatory tissues or cancer tissues” value [2] was “bound broadly”, the “binding to damaged A549 cells” value ([3]; A549 cells with missed sialic acid on the cell surface) was “strongly bound” and the “binding to healthy A549 cells” value ([3]; healthy (intact) A549 cells) was “weakly bound”. The “binding to human fetal tissues” value (human fetal tissues) was “bound”, the “histological changes of lungs of mouse pups (HE)” value ([4]; mouse, in vivo) was “Acute lung inflammation and injury” and the “histology of the brains of mouse pups (HE)” value ([4]; mouse, in vivo) was “Large amount of inflammatory cells infiltration”. For the same molecule, the “Death (%)” value ([4]; mouse, in vivo, ip) was 44.8%, the “Sick (%)” value ([4]; mouse, in vivo, ip) was 17.1% and the “Sick + Death (%)” value ([4]; mouse, in vivo, ip) was 61.9%. The “Odds Ratio” value ([4]; sick and death of mouse pups, vs saline) was 21.3.
With `COC(=O)[C@]1(O)CC(O)[C@@H](NC(C)=O)C(C(O)[C@H](O)CO)O1` (some centres unmarked) [NANA-Me, N-acetylneuraminic acid methyl ester] the stability [1] was “most stable at about pH 4.5 and least stable at about pH 7.3”, the “NANA-Me stability by ratio NANA:NANA-Me” value ([1]; pH 7.4) was “most stable at NANA:NANA-Me of 1:4 and least stable at NANA:NANA-Me of 1:1” and the “deaths (survival rate)” value ([5]; pH 1.5) was “ineffective”. The “deaths (survival rate)” value ([5]; pH 3.5) was “ineffective”, the “deaths (survival rate)” value ([5]; pH 4.5) was “significantly reduced deaths” and the “deaths (survival rate)” value ([5]; pH 7) was “ineffective”.
In the case of `CCOC(=O)C1=C[C@@H](OC(CC)CC)[C@H](NC(C)=O)[C@@H](N)C1` [Tamiflu], the body weight [5] is reported as “maintained better body weight”, the “deaths (survival rate)” value [5] is reported as “significantly reduced the deaths” and the “inflammation of lung and intestine (HE stained tissue sections)” value [5] is reported as “Severe inflammation”. For the same molecule, the “lung cytokine level of IL-1β” value [5] was “remained abnormally higher”, the “lung cytokine level of IL-6” value [5] was “remained abnormally higher” and the “lung cytokine level of TNF-α” value [5] was “remained abnormally higher”. The “serum cytokine level of IL-6” value [5] was “significantly reduced”, the “serum cytokine level of TNF-α” value [5] was “significantly reduced” and the “deaths (survival rate)” value ([5]; listed as Tamilu) was “did not show significant effect”. The “therapeutic efficacy compared to vehicle controls” value [6] was “did not show significant efficacy”.

Reference: patent publication US20240239829A1 (priority 2021, published 2024)
